assay: gradient 5% acetonitrile 3 min, to 50% in 2 min, to 85% in 15 min, held 3 min, 100 µL/min; details: column: Zorbax Extend-C18 2.1 x 50 mm; eluents: water / acetonitrile, 0.1% formic acid
Summary of the method: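 Data were gathered over 3 months by HPLC coupled to a quadrupole time-of-flight mass spectrometer, operated in positive and negative ionization mode. Mixtures of ~100 pure standards ran on a Zorbax Extend-C18 column (2.1 × 50 mm, 1.8 μm) at 100 μL/min, with water and acetonitrile each containing 0.1% formic acid and dead and dwell volumes of 40 μL and 900 μL. Retention time was read from adduct peaks picked by computer and checked manually.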

| SMILES | RP-LC retention time [s] |
| --- | --- |
| CN(C)CCNC(=O)Cc1cccn1-c1ccc(Cl)cc1 | 618 |
| O=C(NC1CCCC1)N1CCc2nc(-c3ccccc3)ncc2C1 | 822 |
| O=C(NC1CCCCC1)C1CCN(S(=O)(=O)c2cc(C(=O)N3CCCC3)cs2)CC1 | 765 |
| O=C(Nc1nc(C(=O)N2CCc3ccccc32)co1)c1cccs1 | 730 |
| CCOC(=O)c1ccc(NC(=O)NCc2ccccc2)cc1 | 817 |
| O=C1COc2cc(S(=O)(=O)N3CCCC3C(=O)N3CCc4ccccc43)c(Cl)cc2N1 (centres undefined) | 795 |
| COc1ccc(-c2nnc(COc3cccc(NC(=O)c4nn(C)c5ccccc45)c3)o2)cc1 | 1040 |
| CCCn1ccc2sc(C)c(C(=O)NC(C)C)c2c1=O | 720 |
| O=S(=O)(c1cc(-c2nnc(C3CC3)o2)co1)N1CCC(N2CCCCC2)CC1 | 597 |
| CC(C)c1ccc(NC(=O)Cn2c(=O)cc(-c3nc(C4CC4)no3)c3ccccc32)cc1 | 1120 |
| CC(C)n1c(=O)oc2cc(-c3noc(-c4ccccc4Br)n3)ccc21 | 1220 |
| COc1ccc(N2CC(c3nc(-c4ccc(C(F)(F)F)cc4)no3)CC2=O)cc1 (centres undefined) | 1040 |
| CC1=C(c2ccccc2)S(=O)(=O)N=C1N1CCCN(C(=O)c2cccs2)CC1 | 770 |
| O=C(NCC(c1cccnc1)N1CCc2ccccc2C1)C(=O)NC1CCCCCC1 (centres undefined) | 681 |
| CNC(=O)[C@@H]1CN(S(=O)(=O)c2ccc(Cl)s2)C[C@H]1c1n[nH]c(C)n1 | 656 |
| Cc1ccccc1Nc1c(-c2cccc(Cl)c2)nc2ncccn12 | 901 |
| CC(C)c1ccc(NC(=O)C2CCN(S(C)(=O)=O)c3ccccc3O2)cc1 (centres undefined) | 930 |
| CC(C)CN1CCN(S(=O)(=O)c2ccc(-c3nnc(C4CCC4)o3)o2)CC1 | 610 |
| Cc1ccccc1NC(=O)/C=N/O | 636 |
| Cc1noc(C)c1S(=O)(=O)Nc1cc2c3c(c1)CC(=O)N3CCC2 | 672 |
| O=C(Cc1cccc(F)c1)N1CCC(n2nc(-c3ccsc3)ccc2=O)CC1 | 812 |

| SMILES | RP-LC retention time [s] |
| --- | --- |
| CC(C)c1ccc(-c2nc(-c3ccc4c(c3)oc(=O)n4C)no2)cc1 | 1250 |
| Cc1ccc(Nc2c(-c3ccccc3)nc3cnccn23)c(Br)c1 | 1040 |
| O=C(c1ccc2ccnc(N3CCN(c4ccccc4)CC3)c2c1)N1CCN(C2CCCCC2)CC1 | 625 |
| Cc1cc(C)c(C)c(S(=O)(=O)N2CCC(F)(c3nc(CC(C)C)no3)CC2)c1C | 1410 |
| CCn1c(SCC(=O)Nc2ccccc2C(F)(F)F)nc2c(c1=O)SC(C)C2 (centres undefined) | 854 |
| O=C(CNC(=O)c1c[nH]c2ccccc12)Nc1cc(Cl)ccc1O | 695 |
| Fc1ccc(OCc2nc(-c3cccc(-c4ccn[nH]4)c3)no2)cc1 | 939 |
| Cc1c(-c2cccc(NC(=O)c3cccs3)c2)nc2ncccn12 | 638 |
| COc1ccc(NC(=O)NC2CCN(c3ccc(F)cc3)C2=O)cc1OC (centres undefined) | 722 |
| COCc1nncn1C1CCN(S(=O)(=O)c2ccccc2Cl)CC1 | 697 |
| COc1ccc(C2(C(=O)N3CCC(c4noc(-c5cccc(OC)c5)n4)CC3)CC2)cc1 | 1040 |
| Cc1ccccc1NC(=O)C1(C)Oc2cccnc2NC1=O (centres undefined) | 673 |
| COCC1CN(C2CCC2)CC12CCN(C(=O)c1cccs1)CC2 (centres undefined) | 602 |
| Cc1cc(N2CCCCC2)nc(NCCNS(=O)(=O)N(C)C)n1 | 570 |
| O=C(c1nnn2c1COC(c1ccccc1)C2)N1CCN(C(=O)c2cccc3[nH]ccc23)CC1 (centres undefined) | 792 |
| Cc1ccc(S(=O)(=O)Nc2nc3ccccc3nc2Nc2ccc3nsnc3c2)cc1 | 1220 |
| CCC(C)C(NC(=O)c1cccc(N(C)C)c1)C(=O)Nc1nc2ccccc2[nH]1 (centres undefined) | 703 |
| O=C(NC1CCCC1)c1ccn[nH]1 | 614 |
| CCc1nc2cc(-c3noc(-c4ccc(C#N)cc4)n3)ccc2o1 | 1050 |
| CCOc1ccc(C(=O)N2CCCCC2c2nncn2C)cc1OCC (centres undefined) | 646 |
| CN(C)C(=O)c1cc2sc(Cl)cc2n1C | 837 |

More lines, now with the values ahead:

| RP-LC retention time [s] | SMILES |
| --- | --- |
| 956 | CCc1noc(NC(C)=O)c1-c1ccc(C)c(S(=O)(=O)N2CCc3ccccc3C2)c1 |
| 753 | Cc1cc(C)cc(S(=O)(=O)N2CCC3(CC2)NCCN=C3NCc2ccc(F)cc2)c1 |
| 635 | Cc1ccc2nc3sc(C(=O)Nc4c(C)n(C)n(-c5ccccc5)c4=O)cc3c(=O)n2c1 |
| 684 | Cc1ccc(Cc2c(C)nc3c(C(=O)NCCCN4CCOCC4)cnn3c2C)cc1 |
| 1090 | CCc1ccc(-c2nc(C3CC(=O)N(c4ccc(OC)cc4)C3)no2)cc1 (centres undefined) |
| 829 | CCS(=O)(=O)NCc1ccc2c(c1)CCN2C(=O)c1ccc(Cl)cc1 |
| 878 | CN(C)S(=O)(=O)c1ccc(-c2nnc(C(=O)NCc3cc(F)cc(F)c3)o2)cc1 |
| 708 | Cc1ccc(CNC(=O)C2CCCN(c3nnc4ccccn34)C2)cc1C (centres undefined) |
| 588 | O=C(CCc1nnc2ccc(NCc3ccccc3)nn12)N1CCN(c2ccccn2)CC1 |
| 976 | Cc1nc(-c2ccc(N3CCN(C(=O)c4ccc(F)c(F)c4)CC3)nc2)sc1C |
| 657 | CCOc1ccc(NC(=O)c2cn3c4c(ccc(Cl)c4c2=O)OCC3)cc1 |
| 900 | Cc1cc(-c2nnc(C3CCC3)o2)c(C)n1CC(=O)Nc1cccc(F)c1 |
| 758 | O=C(Cn1nc2c3cc(-c4ccc(F)cc4)nn3ccn2c1=O)N1CCCC1 |
| 774 | Cc1ccc(NC(=O)N2CCC(N3CCN(Cc4ccc(F)cc4)C(=O)C3=O)CC2)cc1C |
| 830 | Cc1ccc(C(=O)NCC(=O)N2CCCc3ccccc32)s1 |
| 1050 | Cc1ccc(-n2c(N3CCCC(C(=O)Nc4ccc(F)c(F)c4)C3)nc3ccsc3c2=O)cc1 (centres undefined) |
| 996 | CCCC(CCC)C(=O)NCCc1c[nH]c2ccc(C)cc12 |
| 560 | NC(=O)c1cc[nH]c1C1CCCN(C(=O)c2ccc(Cn3cncn3)o2)C1 (centres undefined) |
| 672 | CC(C)n1c(CCNC(=O)Cc2ccc(F)cc2)nc2cccnc21 |
| 704 | Cc1ccc(CNC(=O)C2CCCN(c3nnc4c(Cl)cccn34)C2)o1 (centres undefined) |
| 1180 | COc1ccc(CNS(=O)(=O)c2cc(-c3nc(C(C)C)cs3)sc2C)cc1 |
| 827 | COc1ccc(Cn2nc3ccc(S(=O)(=O)N4CCCC4)cn3c2=O)cc1 |
| 914 | O=C(NCc1csc(-c2ccccc2)n1)C1CCN(S(=O)(=O)c2ccccc2F)CC1 |
| 753 | O=C(c1ccco1)N1CCN(c2ccc(=O)n(-c3cccc(Cl)c3)n2)CC1 |

| RP-LC retention time [s] | SMILES |
| --- | --- |
| 774 | O=C(Cn1cccc1-c1nnc(-c2ccccc2)o1)N1CCN(C(=O)c2ccco2)CC1 |
| 928 | COc1ccc(-c2cc(C(=O)Nc3ccccc3F)nn2C2CCS(=O)(=O)C2)cc1 (centres undefined) |
| 675 | Cc1ccn2cc(C(=O)NCc3ccccc3Cl)nc2c1 |
| 964 | CCc1ccccc1N(CC)C(=O)C1CCCN(c2ncnc3c2nc2n3CCCCC2)C1 (centres undefined) |
| 960 | Cc1cccc(-n2c(=O)c3c(cc(C)n3C)n(CC(=O)Nc3ccc(C)c(Cl)c3)c2=O)c1 |
| 923 | Cn1nc(C(=O)N2CCC3(CC2)N=C(c2cccc(Br)c2)NO3)c2ccccc21 |
| 767 | CN(C)C(=O)N1CCC(c2nc(CCOc3ccc(F)cc3)no2)C1 (centres undefined) |
| 824 | Cc1nnc2cc(N3CCN(S(=O)(=O)c4ccc(C(C)(C)C)cc4)CC3)cnn12 |
| 715 | Cc1ccc(NS(=O)(=O)c2cc(-c3[nH]ncc3C(=O)N3CCCC3)oc2C)cc1 |
| 704 | CCN(CC)C(=O)c1ccc(-c2nc3cc(NS(=O)(=O)c4cc(F)ccc4F)ccc3n2C)cc1 |
| 600 | O=C(NC1CC1)c1cc(N2CCCC2)nc2ccc(F)cc12 |
| 556 | Cc1cc(C(=O)N2CCN(c3ccccn3)CC2)nc2ccnn12 |
| 732 | CCn1cnc(S(=O)(=O)N2CCC(C(=O)NCC(C)c3ccccc3)CC2)c1 (centres undefined) |
| 777 | COc1cc(=O)n2c(c1C(=O)Nc1ccc(Br)cc1F)CCCC2 |
| 709 | Cc1ccc(CNC(=O)CCc2c(-c3ccc(Br)cc3)nc3ccccn23)cc1 |
| 804 | O=C(CSc1nc(N2CCCCC2)nc2ccccc12)Nc1ccc(Cl)cc1 |
| 725 | CC(C(=O)NCCCN(C)Cc1ccccc1)n1c(=O)c(C(F)(F)F)nc2ccccc21 (centres undefined) |
| 1130 | CCOC(=O)c1noc2nc(C)nc(NCCc3ccc(C)cc3)c12 |
| 751 | Cc1ccc(NC(=O)N2CCC(N3CCN(Cc4ccc(F)cc4)C(=O)C3=O)CC2)c(C)c1 |
| 626 | Cc1nc(-c2ccccc2)sc1CC(=O)NCCSc1nncn1C |
| 758 | Cc1cc(F)ccc1NC(=O)C1CC(=O)N(c2ccc3c(c2)CCN3C(=O)C2CC2)C1 (centres undefined) |
| 727 | Cn1cc(CC(=O)NCc2ccc(F)cc2Cl)c2cccnc21 |
| 944 | CC(C)(C)c1ccc(S(=O)(=O)c2nnn(-c3ccc4c(c3)OCCO4)c2N)cc1 |

— the METLIN SMRT retention time set (Domingo-Almenara et al. 2019)
